The values that follow come from patent publication US10456394B2, “Tetrahydroquinoline substituted hydroxamic acids as selective histone deacetylase 6 inhibitors” (THE BOARD OF TRUSTEES OF THE UNIVERSITY OF ILLINOIS, priority 2016, dated 2019).

Assay [1] deals with Human HDAC1 (Homo sapiens (Human), UniProt Q13547). Kind of assay: HDAC enzyme activity inhibition assay, HDAC1. The class given is biochemical. The following applies: Table 1; mean of two experiments ± standard deviation; 10-point assay from 30 μM, 3-fold serial dilution.
For assay [2], the target named is Human HDAC6 (Homo sapiens (Human), UniProt Q9UBN7). In words: HDAC enzyme activity inhibition assay, HDAC6. The class given is biochemical. The following applies: Table 1; for IC50: mean of two experiments ± standard deviation, 10-point assay from 30 μM, 3-fold serial dilution; for Selectivity HDAC1/HDAC6: ratio of IC50 values.
Assay [3] has as its system symptomatic mutant HSPB1 mice. The following applies: cited from earlier work.
In assay [4] the test system is traumatic brain injury. As to conditions: following traumatic brain injury in rats; cited from earlier work.
The subject of assay [5] is mice with colitis. As to conditions: treatment begun once colitis had developed; cited from earlier work.
Assay [6] deals with HDAC5 (Homo sapiens (Human), UniProt Q9UQL6). In words: HDAC enzyme activity inhibition assay, HDAC5. Format: biochemical. As to conditions: Table 2; mean of two experiments.
In assay [7] the target is HDAC11 (Homo sapiens (Human), UniProt Q96DB2). Kind of assay: HDAC enzyme activity inhibition assay, HDAC11. The following applies: Table 2; mean of two experiments. The class given is biochemical.
The target of assay [8] is HDAC10 (Homo sapiens (Human), UniProt Q969S8). In words: HDAC enzyme activity inhibition assay, HDAC10. Format: biochemical. The following applies: Table 2; mean of two experiments.
In assay [9] the test system is cardiac fibroblasts. In words: Tubulin acetylation in adult rat cardiac fibroblasts. The following applies: in comparison to the DMSO control (FIG. 2). The class given is cell-based. How it is done: The ability of the inhibitor to induce tubulin acetylation in cardiac fibroblasts was also determined and western blot is shown below.
Assay [10] addresses HDAC4 (Homo sapiens (Human), UniProt P56524). In words: HDAC enzyme activity inhibition assay, HDAC4. The class given is biochemical. As to conditions: Table 2; mean of two experiments.
Assay [11] concerns GBM6 cells. In words: Growth inhibition of glioblastoma cell line GBM6. The class given is cell-based. The following applies: FIG. 4.
Assay [12] has as its target HDAC7 (Homo sapiens (Human), UniProt Q8WUI4). Kind of assay: biochemical.
The target in assay [13] is HDAC3/NcoR2 complex (Homo sapiens (Human), UniProt O15379). In words: HDAC enzyme activity inhibition assay, HDAC3. The class given is biochemical. As to conditions: Table 2; mean of two experiments.
Assay [14] concerns the target HDAC8 (Homo sapiens (Human), UniProt Q9BY41). Kind of assay: HDAC enzyme activity inhibition assay, HDAC8. Format: biochemical.
Assay [15] addresses HDAC2 (Homo sapiens (Human), UniProt Q92769). In words: HDAC enzyme activity inhibition assay, HDAC2. The class given is biochemical. As to conditions: Table 2; mean of two experiments.
The target in assay [16] is HDAC9 (Homo sapiens (Human), UniProt Q9UKV0). In words: HDAC enzyme activity inhibition assay, HDAC9. The class given is biochemical. The following applies: Table 2; mean of two experiments.

A value given as a limit tells only on which side of the number the result lay.

Chain of Human HDAC6 (Q9UBN7 whole entry): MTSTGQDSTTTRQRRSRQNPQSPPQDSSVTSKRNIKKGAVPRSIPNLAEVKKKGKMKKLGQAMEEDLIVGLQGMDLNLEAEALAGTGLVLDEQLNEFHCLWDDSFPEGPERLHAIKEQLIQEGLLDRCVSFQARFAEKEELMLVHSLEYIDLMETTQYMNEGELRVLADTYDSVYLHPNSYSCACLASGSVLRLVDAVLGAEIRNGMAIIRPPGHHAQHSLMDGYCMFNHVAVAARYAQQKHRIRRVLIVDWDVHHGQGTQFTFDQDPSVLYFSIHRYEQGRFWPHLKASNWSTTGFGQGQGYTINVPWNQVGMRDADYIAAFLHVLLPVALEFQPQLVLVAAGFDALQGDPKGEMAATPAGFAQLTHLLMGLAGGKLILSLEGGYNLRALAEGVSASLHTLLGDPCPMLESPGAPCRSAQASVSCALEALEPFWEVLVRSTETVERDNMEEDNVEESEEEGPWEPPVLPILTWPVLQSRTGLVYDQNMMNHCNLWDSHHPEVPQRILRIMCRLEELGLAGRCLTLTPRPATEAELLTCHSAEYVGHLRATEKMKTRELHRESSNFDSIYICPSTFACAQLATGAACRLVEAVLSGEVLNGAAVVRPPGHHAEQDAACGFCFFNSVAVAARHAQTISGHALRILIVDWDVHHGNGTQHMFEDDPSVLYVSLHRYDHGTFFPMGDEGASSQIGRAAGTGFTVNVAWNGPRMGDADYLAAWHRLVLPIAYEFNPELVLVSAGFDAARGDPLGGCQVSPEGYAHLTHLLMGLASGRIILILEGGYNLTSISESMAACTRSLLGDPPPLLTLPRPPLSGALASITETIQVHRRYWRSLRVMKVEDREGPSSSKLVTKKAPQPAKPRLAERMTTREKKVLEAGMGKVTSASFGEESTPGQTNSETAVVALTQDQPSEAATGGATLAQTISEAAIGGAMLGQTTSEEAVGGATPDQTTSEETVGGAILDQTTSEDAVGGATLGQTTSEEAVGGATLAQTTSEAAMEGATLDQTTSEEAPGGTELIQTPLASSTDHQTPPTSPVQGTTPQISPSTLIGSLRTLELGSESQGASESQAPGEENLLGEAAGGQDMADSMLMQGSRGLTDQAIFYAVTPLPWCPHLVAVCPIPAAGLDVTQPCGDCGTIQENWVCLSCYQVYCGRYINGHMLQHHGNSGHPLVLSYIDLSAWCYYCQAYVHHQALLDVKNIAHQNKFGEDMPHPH
Chain of Human HDAC1 (Q13547 whole entry): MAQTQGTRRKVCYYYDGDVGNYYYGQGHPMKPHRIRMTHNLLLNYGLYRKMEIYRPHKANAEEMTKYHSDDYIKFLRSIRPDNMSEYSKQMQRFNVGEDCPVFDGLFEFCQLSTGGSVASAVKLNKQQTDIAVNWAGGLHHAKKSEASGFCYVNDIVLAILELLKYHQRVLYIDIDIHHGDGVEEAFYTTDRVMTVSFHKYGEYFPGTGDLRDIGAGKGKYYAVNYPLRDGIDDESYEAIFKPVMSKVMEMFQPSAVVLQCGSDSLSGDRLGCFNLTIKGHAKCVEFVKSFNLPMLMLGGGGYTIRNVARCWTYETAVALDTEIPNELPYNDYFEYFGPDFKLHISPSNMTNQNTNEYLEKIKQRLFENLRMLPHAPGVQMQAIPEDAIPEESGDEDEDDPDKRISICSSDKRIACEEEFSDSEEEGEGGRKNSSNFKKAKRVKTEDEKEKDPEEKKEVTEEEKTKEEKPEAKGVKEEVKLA
Chain of HDAC9 (Q9UKV0 whole entry): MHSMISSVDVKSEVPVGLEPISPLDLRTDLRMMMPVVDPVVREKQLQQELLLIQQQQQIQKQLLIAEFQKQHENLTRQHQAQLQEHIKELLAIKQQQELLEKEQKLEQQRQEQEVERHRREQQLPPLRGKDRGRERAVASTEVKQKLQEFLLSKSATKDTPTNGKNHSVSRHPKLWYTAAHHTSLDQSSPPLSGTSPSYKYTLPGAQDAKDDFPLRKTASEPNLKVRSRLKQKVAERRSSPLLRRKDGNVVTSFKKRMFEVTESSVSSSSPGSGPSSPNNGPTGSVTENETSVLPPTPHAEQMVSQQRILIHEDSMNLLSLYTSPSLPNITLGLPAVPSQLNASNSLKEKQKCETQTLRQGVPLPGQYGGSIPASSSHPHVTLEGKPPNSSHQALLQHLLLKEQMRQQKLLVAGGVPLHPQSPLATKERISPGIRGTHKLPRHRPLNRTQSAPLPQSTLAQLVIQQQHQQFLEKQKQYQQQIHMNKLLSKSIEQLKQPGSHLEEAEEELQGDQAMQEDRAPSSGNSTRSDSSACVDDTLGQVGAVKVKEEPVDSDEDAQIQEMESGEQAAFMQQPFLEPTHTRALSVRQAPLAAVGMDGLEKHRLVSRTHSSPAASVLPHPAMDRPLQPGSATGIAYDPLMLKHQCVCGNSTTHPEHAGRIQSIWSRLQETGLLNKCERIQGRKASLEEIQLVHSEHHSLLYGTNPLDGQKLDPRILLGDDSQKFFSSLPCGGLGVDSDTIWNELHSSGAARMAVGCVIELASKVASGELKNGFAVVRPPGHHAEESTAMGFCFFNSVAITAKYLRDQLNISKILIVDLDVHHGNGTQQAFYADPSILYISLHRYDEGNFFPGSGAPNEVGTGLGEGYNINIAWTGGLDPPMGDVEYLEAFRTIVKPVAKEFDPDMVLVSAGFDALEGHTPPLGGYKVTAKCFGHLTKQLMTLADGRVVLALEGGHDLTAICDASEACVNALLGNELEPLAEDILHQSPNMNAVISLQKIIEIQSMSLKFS
Chain of HDAC8 (Q9BY41 whole entry): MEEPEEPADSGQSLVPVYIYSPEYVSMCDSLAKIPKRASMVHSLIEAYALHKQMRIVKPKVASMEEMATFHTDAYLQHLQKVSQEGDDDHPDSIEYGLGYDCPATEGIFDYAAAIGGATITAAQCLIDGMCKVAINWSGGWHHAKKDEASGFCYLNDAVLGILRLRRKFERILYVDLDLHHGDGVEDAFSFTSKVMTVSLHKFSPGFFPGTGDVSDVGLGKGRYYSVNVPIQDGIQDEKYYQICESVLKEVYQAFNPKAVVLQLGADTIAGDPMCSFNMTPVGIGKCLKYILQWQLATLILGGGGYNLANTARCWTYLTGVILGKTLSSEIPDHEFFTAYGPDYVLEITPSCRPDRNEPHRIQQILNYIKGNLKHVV
Chain of HDAC5 (Q9UQL6 whole entry): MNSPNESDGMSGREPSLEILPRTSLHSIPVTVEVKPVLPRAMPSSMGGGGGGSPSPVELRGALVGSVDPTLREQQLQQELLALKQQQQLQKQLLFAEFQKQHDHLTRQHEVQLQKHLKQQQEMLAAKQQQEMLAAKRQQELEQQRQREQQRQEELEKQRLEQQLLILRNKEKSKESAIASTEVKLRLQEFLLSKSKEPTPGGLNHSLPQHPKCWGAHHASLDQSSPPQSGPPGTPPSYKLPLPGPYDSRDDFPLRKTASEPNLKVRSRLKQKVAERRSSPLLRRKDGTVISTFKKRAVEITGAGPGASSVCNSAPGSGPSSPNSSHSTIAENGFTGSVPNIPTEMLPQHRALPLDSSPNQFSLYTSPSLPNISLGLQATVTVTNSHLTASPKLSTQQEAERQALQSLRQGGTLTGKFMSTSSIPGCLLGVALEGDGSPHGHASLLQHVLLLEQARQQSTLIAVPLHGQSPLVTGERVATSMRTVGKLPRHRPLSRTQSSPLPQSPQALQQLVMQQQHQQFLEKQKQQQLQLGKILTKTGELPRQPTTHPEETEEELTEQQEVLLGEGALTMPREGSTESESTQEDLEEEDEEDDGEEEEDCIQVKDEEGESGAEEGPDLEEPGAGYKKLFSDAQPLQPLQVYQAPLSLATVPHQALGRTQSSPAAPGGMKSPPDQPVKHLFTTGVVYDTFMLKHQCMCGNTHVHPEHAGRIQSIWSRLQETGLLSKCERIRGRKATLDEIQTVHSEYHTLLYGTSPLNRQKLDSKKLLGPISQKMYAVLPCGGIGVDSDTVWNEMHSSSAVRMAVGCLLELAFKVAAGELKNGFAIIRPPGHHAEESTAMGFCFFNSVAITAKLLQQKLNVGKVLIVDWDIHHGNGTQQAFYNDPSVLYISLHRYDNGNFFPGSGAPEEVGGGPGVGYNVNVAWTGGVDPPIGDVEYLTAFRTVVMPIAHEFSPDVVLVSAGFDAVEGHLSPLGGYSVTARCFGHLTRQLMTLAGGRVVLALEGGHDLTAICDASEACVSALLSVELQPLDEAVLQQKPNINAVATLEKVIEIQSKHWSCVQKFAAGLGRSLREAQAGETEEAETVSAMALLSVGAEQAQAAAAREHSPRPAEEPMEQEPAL
Chain of HDAC3/NcoR2 complex (O15379 whole entry): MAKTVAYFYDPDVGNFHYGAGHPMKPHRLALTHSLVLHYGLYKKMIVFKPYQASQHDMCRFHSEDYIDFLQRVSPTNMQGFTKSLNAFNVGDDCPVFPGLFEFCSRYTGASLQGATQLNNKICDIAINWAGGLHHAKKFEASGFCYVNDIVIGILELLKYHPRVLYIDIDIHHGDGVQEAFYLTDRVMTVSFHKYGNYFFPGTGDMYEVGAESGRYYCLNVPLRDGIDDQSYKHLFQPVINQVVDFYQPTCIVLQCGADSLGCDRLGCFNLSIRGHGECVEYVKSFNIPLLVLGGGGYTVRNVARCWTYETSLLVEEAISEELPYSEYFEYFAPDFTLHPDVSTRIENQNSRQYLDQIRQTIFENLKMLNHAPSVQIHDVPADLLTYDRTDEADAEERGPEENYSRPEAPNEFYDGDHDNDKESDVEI
Chain of HDAC3/NcoR2 complex (Q9Y618 395-489 partner): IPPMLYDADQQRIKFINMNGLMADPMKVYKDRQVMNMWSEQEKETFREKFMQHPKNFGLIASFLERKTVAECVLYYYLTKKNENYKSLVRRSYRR

With `O=C(NO)c1ccc(CN2CC[S+]([O-])c3ccccc32)cc1` (centres unmarked) [Example 17, N-hydroxy-4-((1-oxido-2,3-dihydro-4H-benzo[b][1,4]thiazin-4-yl)methyl)benzamide], the results for the IC50 in assay [1] and in assay [2] were 2600 ± 30 nM and 2 ± 0.1 nM, respectively. Moreover, in assay [2], the “Selectivity HDAC1/HDAC6” value is on record as 1300.

`O=C(NO)c1ccc(CN2CCCc3cc(F)c(Cl)cc32)cc1` [Example 7, 4-((7-chloro-6-fluoro-3,4-dihydroquinolin-1(2H)-yl)methyl)-N-hydroxybenzamide] returned an IC50 in assay [1] of 1865 ± 5 nM. In [2], the IC50 was 3.43 ± 0.27 nM and the “Selectivity HDAC1/HDAC6” value was found to be 544.

With `CC1(C)CCc2cc(Cl)ccc2N1Cc1ccc(C(=O)NO)cc1` [Example 9, 4-((6-chloro-2,2-dimethyl-3,4-dihydroquinolin-1(2H)-yl)methyl)-N-hydroxybenzamide], the midpoint of inhibition in [1], the IC50, lay at 19600 ± 2450 nM. In assay [2], 328 ± 15.5 nM corresponded to half-maximal inhibition (IC50) and the “Selectivity HDAC1/HDAC6” value is listed as 60.

Take `O=C(NO)c1ccc(CN2CCCc3cc(Cl)c(Cl)cc32)cc1` [Example 6, 4-((6,7-dichloro-3,4-dihydroquinolin-1(2H)-yl)methyl)-N-hydroxybenzamide]: the IC50 in [1] is 2620 ± 115 nM; in assay [2] it was 3.59 ± 0.1 nM. Moreover, the “Selectivity HDAC1/HDAC6” value in [2] was 728.

`O=C(NO)c1ccc(CN2CCCc3cc(Cl)ccc32)c(F)c1` [Example 3, 4-((6-chloro-3,4-dihydroquinolin-1(2H)-yl)methyl)-3-fluoro-N-hydroxybenzamide] came in with an IC50 in assay [1] of 21200 ± 1150 nM. In assay [2], the concentration for half-maximal inhibition (IC50) was 12.4 ± 5.5 nM and the “Selectivity HDAC1/HDAC6” value was 1706.

With `CN1CCc2c(c3ccccc3n2Cc2ccc(C(=O)NO)cc2)C1` [Tubastatin A], in [3], the “axonal transport defects and CMT phenotype” value is “corrects the axonal transport defects induced by HSPB1 mutations and rescues the CMT phenotype”.

Regarding `O=C(NO)c1ccc(Cn2c(=O)cnc3ccccc32)cc1` [Example 19, N-hydroxy-4-((2-oxoquinoxalin-1(2H)-yl)methyl)benzamide], the IC50 in assay [1] stood at 1045 ± 5 nM; in assay [2], 1.2 ± 0.3 nM. The “Selectivity HDAC1/HDAC6” value in assay [2] is recorded as 870.

The compound `O=C(NO)c1ccc(CN2CCCc3cc(F)ccc32)cc1` [Example 5, 4-((6-fluoro-3,4-dihydroquinolin-1(2H)-yl)methyl)-N-hydroxybenzamide] displayed a concentration for half-maximal inhibition (IC50) in assay [1] of 5235 ± 45 nM. For the same compound, in assay [2], the half-inhibitory concentration (IC50) stood at 5.05 ± 0.23 nM and the “Selectivity HDAC1/HDAC6” value turned out to be 1037.

Take `O=C(NO)c1ccc(CN2CCN(CC3CC3)c3ccccc32)cc1` [Example 15, 4-((4-(cyclopropylmethyl)-3,4-dihydroquinoxalin-1(2H)-yl)methyl)-N-hydroxybenzamide]: the IC50 in [1] was found to be 6690 ± 270 nM; in [2], 39.3 ± 0.3 nM. For the same compound, the “Selectivity HDAC1/HDAC6” value in assay [2] is on record as 170.

With `CC1(C)CCN(Cc2ccc(C(=O)NO)cc2)c2ccc(Cl)cc21` [Example 12, 4-((6-chloro-4,4-dimethyl-3,4-dihydroquinolin-1(2H)-yl)methyl)-N-hydroxybenzamide], the IC50 in assay [1] is 19500 ± 700 nM. Besides, in assay [2], the IC50 turned out to be 37.8 ± 4.8 nM and the “Selectivity HDAC1/HDAC6” value worked out at 516.

As to `O=C(NO)c1ccc(CN2CCSc3ccccc32)cc1` [Example 16, 4-((2,3-dihydro-4H-benzo[b][1,4]thiazin-4-yl)methyl)-N-hydroxybenzamide], the results for the IC50 in assay [1] and in [2] were 7935 ± 25 nM and 6.1 ± 0.1 nM, respectively. Also, the “Selectivity HDAC1/HDAC6” value in assay [2] worked out at 1300.

`CN(C)c1ccc(C(=O)NCCCCCNC(=O)CS)cc1` [DMA-PB, 4-dimethylamino-N-[5-(2-mercaptoacetylamino)pentyl]benzamide]: the “histone H3 acetylation and microglia inflammatory response” value in assay [4] was “increase histone H3 acetylation and reduce microglia inflammatory response”.

Turning to `CC1(C)CCc2cc(F)ccc2N1Cc1ccc(C(=O)NO)cc1` [Example 10, 4-((6-fluoro-2,2-dimethyl-3,4-dihydroquinolin-1(2H)-yl)methyl)-N-hydroxybenzamide], the IC50 in [1] came to 14100 ± 1900 nM; in assay [2], 161 ± 3 nM. Besides, in [2], the “Selectivity HDAC1/HDAC6” value came out at 88.

Regarding `O=C(NO)c1ccc(CN2CCNc3ccccc32)cc1` [Example 14, 4-((3,4-dihydroquinoxalin-1(2H)-yl)methyl)-N-hydroxybenzamide], the IC50 in assay [1] is 8750 ± 1070 nM; in assay [2] it was 2.9 ± 0.4 nM. For the same compound, the “Selectivity HDAC1/HDAC6” value in [2] was found to be 3017.

As for `CC(C)(C)OC(=O)N1CC(=O)N(Cc2ccc(C(=O)NO)cc2)c2ccccc21` [Example 18, tert-butyl 4-(4-(hydroxycarbamoyl)benzyl)-3-oxo-3,4-dihydroquinoxaline-1(2H)-carboxylate], half-maximal inhibition in assay [1] (IC50) was put at 22000 ± 1550 nM. Moreover, in [2], the IC50 is 33.6 ± 1.9 nM and the “Selectivity HDAC1/HDAC6” value came out at 653.

With `O=C(CCCCCCC(=O)Nc1ccc([C@H]2O[C@@H](CSc3nc(-c4ccccc4)c(-c4ccccc4)o3)C[C@@H](c3ccc(CO)cc3)O2)cc1)NO` [tubacin], the “rescue of mice with colitis” value in assay [5] is reported as “able to rescue mice”.

For the compound `CC(c1ccc(C(=O)NO)cc1)N1CCCc2cc(Cl)ccc21` (centres unmarked) [Example 4, 4-(1-(6-chloro-3,4-dihydroquinolin-1(2H)-yl)ethyl)-N-hydroxybenzamide], in [1], the IC50 turned out to be 8430 ± 30 nM. Also, in [2], the 50% inhibitory concentration (IC50) was determined as 382 ± 20.5 nM and the “Selectivity HDAC1/HDAC6” value worked out at 22.

`CC1(C)CC(=O)N(Cc2ccc(C(=O)NO)cc2)c2ccc(Cl)cc21` [Example 11, 4-((6-chloro-4,4-dimethyl-2-oxo-3,4-dihydroquinolin-1(2H)-yl)methyl)-N-hydroxybenzamide] came in with an IC50 in assay [1] of 6500 ± 230 nM. Moreover, in assay [2], the IC50 was found to be 28.9 ± 1.1 nM and the “Selectivity HDAC1/HDAC6” value is listed as 225.

Regarding `O=C(NO)c1ccc(CN2CCCc3cc(Cl)c(F)cc32)cc1` [Example 8, 4-((6-chloro-7-fluoro-3,4-dihydroquinolin-1(2H)-yl)methyl)-N-hydroxybenzamide], the IC50 in assay [1] amounted to 3220 ± 85 nM; in assay [2], 4.8 ± 0.78 nM. For the same compound, the “Selectivity HDAC1/HDAC6” value in assay [2] is reported as 670.

Compound `O=C(NO)c1ccc(CN2CCCc3ccccc32)cc1` [Example 1, 4-((3,4-dihydroquinolin-1(2H)-yl)methyl)-N-hydroxybenzamide] showed a concentration for half-maximal inhibition (IC50) in [1] of 11100 nM. In assay [2], half-maximal inhibition (IC50) was put at 14.6 nM and the “Selectivity HDAC1/HDAC6” value turned out to be 760.

For `CC1(C)CCN(Cc2ccc(C(=O)NO)cc2)c2ccc(F)cc21` [Example 13, 4-((6-fluoro-4,4-dimethyl-3,4-dihydroquinolin-1(2H)-yl)methyl)-N-hydroxybenzamide], the IC50 in assay [1] came to 21100 ± 800 nM; in [2], 45.1 ± 0.05 nM. In [2], the “Selectivity HDAC1/HDAC6” value was 468.

With `O=C(NO)c1ccc(CN2CCCc3cc(Cl)ccc32)cc1` [Example 2, 4-((6-chloro-3,4-dihydroquinolin-1(2H)-yl)methyl)-N-hydroxybenzamide], the half-maximal inhibitory concentration (IC50) was 4550 nM in [6]; 746 nM in [7]; > 30000 nM in assay [8]; 11000 nM in assay [10]; 4.06 µM in [12]; > 30000 nM in assay [13]. In addition, the 50% inhibitory concentration (IC50) in assay [14] was 3.34 µM; in assay [15] it was > 30000 nM; in assay [16], 3460 nM. The tubulin acetylation entry in assay [9] is given as “robust tubulin acetylation”. Further, the “growth of glioblastoma cell line (GBM6)” value in assay [11] was “inhibit the growth”.

As usually defined, the IC50 is the concentration needed to halve the response being measured. High values mean weaker potency in that assay, low ones greater potency in that assay.
